Usually ED50 stands for the dose at which the effect has come halfway, by size or by number of responders. High values mean weaker potency, low ones greater potency.

Type-1 angiotensin II receptor (Rattus norvegicus), sequence (P25095 whole entry, looked up, the tested form may be a part): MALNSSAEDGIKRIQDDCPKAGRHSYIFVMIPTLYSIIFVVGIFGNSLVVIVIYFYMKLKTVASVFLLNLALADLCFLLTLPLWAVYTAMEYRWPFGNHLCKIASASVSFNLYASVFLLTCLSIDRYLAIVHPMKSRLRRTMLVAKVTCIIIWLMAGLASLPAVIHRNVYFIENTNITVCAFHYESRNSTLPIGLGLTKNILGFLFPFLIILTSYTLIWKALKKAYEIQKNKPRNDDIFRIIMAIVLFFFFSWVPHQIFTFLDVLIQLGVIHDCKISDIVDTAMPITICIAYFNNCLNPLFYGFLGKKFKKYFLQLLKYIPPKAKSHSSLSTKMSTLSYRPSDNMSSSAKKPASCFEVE

The first assay has as its target Type-1 angiotensin II receptor (Rattus norvegicus) (UniProt P25095). The assay can be described thus: The compound was tested for Angiotensin II (AII) antagonist activity in vivo in an AII infused, normotensive rat model upon intravenous administration.
`CCCCc1nc2ccccc2n1Cc1ccc(-c2ccccc2-c2nn[nH]n2)cc1`: the ED50 is 5.2 mg/kg.

The target is the same in the next assay. The experiment in a line: The compound was tested for Angiotensin II (AII) antagonist activity in vivo in an […], normotensive rat model upon intravenous administration.
As for `CCCCc1nc2ccccc2n1Cc1ccc(C(=O)O)cc1`, the ED50 was 12.6 mg/kg. Still for that read-out and setting: with `CCCCc1nc2ccccc2n1Cc1ccc(C(=O)O)cc1OC` the figure was 16.1 mg/kg; with `CCCCc1nc2cc(F)ccc2n1Cc1ccc(C(=O)O)cc1`, 9.1 mg/kg; with `CCCCc1nc2ccccc2n1Cc1ccc(C(=O)O)cc1Br`, 11.1 mg/kg. The compound `CCCCc1nc2ccccc2n1Cc1ccc(C(=O)O)c(Br)c1` had an ED50 of 5 mg/kg. Still for that read-out and setting: with `CCCCCCc1nc2ccccc2n1Cc1ccc(C(=O)O)cc1` the figure was greater than 20 mg/kg.
